Measurements: US4081434A, “Novel analogs of β-endorphin” (Hoffmann-La Roche Inc., priority 1977, dated 1978)
Ends that are not written are not given here.

System: guinea pig ileum
Assay: guinea pig ileum bioassay of Kosterlitz et al. (opiate agonist activity)
Type: cell-based
Details: for relative potency: guinea pig ileum bioassay, βh and βc -endorphin = 1.00
Text: Thus, for example, in the guinea pig ileum bioassay of Kosterlitz et al. Brit. J. Pharmacol. 39, 398 (1970) the IC50 (50% inhibiting concentration) of representative β-endorphins and the relative potency of β-endorphin fragments are as follows.

Compound | relative potency | more potent than parent compound βh -endorphin (guinea pig ileum assay for opiate agonist activity)
CC[C@H](C)[C@H](NC(=O)[C@H](C)NC(=O)[C@H](CC(N)=O)NC(=O)[C@H](CCCCN)NC(=O)[C@H](Cc1ccccc1)NC(=O)[C@H](CC(C)C)NC(=O)[C@@H](NC(=O)[C@@H](NC(=O)[C@H](CC(C)C)NC(=O)[C@@H]1CCCN1C(=O)[C@@H](NC(=O)[C@H](CCC(N)=O)NC(=O)[C@H](CO)NC(=O)[C@H](CCCCN)NC(=O)[C@H](CCC(=O)O)NC(=O)[C@H](CO)NC(=O)[C@@H](NC(=O)[C@H](CCSC)NC(=O)[C@H](Cc1ccccc1)NC(=O)CNC(=O)CNC(=O)[C@@H](N)Cc1ccc(O)cc1)[C@@H](C)O)[C@@H](C)O)C(C)C)[C@@H](C)O)C(=O)N[C@H](C(=O)N[C@@H](CCCCN)C(=O)N[C@@H](CC(N)=O)C(=O)N[C@@H](C)C(=O)N[C@@H](Cc1ccc(O)cc1)C(=O)N[C@@H](CCCCN)C(=O)N[C@@H](CCCCN)C(=O)NCC(=O)N[C@@H](CCC(=O)O)C(=O)O)[C@@H](C)CC [βh -endorphin] | 1.00 | 
YGGFMTLFKNAIIKNAYKKGE [βh-endorphin-(1-5)-(16-31), H--tyr--Gly--Gly--Phe--Met--Thr--Leu--Phe--Lys--Asn--Ala--Ile--Ile--Lys--Asn--Ala--Tyr--Lys--Lys--Gly--Glu--OH] | 1.35 | about 35%
YGGFMTSEKSQTPLVTLFKNAIIKNAHKKGQ [βc -endorphin] | 1.00 | 
met-enkephalin | 0.26 | 
βc -endorphin-(6-31): fragment 6-31 of camel β-endorphin (TSEKSQTPLVTLFKNAIIKNAHKKGQ; Beta-endorphin; UniProt P01203 6-31, looked up, fragment) | 0.04 | 
βc -endorphin-(20-31): fragment 20-31 of camel β-endorphin (NAIIKNAHKKGQ; Beta-endorphin; UniProt P01203 20-31, looked up, fragment) | 0.001 | 
